Values of other authors, collected in US4096052A, “Electrochemical hydroxylation of certain aromatic compounds” (priority 1977, dated 1978).
Like-named read-outs stand apart in the source and are kept apart here.

[1] = Table II (comparison acids), H2O, 25° C

O=C(O)CBr [bromoacetic]
Ka (H2 O) at 25° C (Table I, H2O, 25° C): 2.05 × 10^-3

O=C(O)CCl [chloroacetic, chloroacetic acid]
Ka (H2 O) at 25° C (Table I, H2O, 25° C): 1.4 × 10^-3

N#CCC(=O)O [cyanoacetic, cyanoacetic acid]
Ka (H2 O) at 25° C (Table I, H2O, 25° C): 3.65 × 10^-3
pKa (H2 O) at 25° C (water): 2.41

O=C(O)C(Cl)Cl [dichloroacetic]
Ka (H2 O) at 25° C (Table I, H2O, 25° C): 3.32 × 10^-2

CCCCC(=O)O [n-valeric]
Ka (H2 O) at 25° C [1]: 1.5 × 10^-5

O=C(O)c1ccccc1[N+](=O)[O-] [o-nitrobenzoic, o-nitrobenzoic acid]
Ka (H2 O) (Table I, H2O, 18° C): 6.95 × 10^-3
pKa (H2 O) (water): 2.16

O=C(O)Cc1ccccc1 [phenylacetic]
Ka (H2 O) (Table II, H2O, 18° C): 5.2
pKa (H2 O) (Table II, H2O, 18° C): 4.28

CCC(=O)O [propionic]
Ka (H2 O) at 25° C [1]: 1.34 × 10^-5

O=C(O)C(Cl)(Cl)Cl [trichloroacetic, trichloroacetic acid]
Ka (H2 O) at 25° C (Table I, H2O, 25° C): 2 × 10^-1
pKa (H2 O) at 25° C (Table I, H2O, 25° C): 0.70

O=C(O)C(F)(F)F [trifluoroacetic, trifluoroacetic acid]
dissociation in aqueous solution (Table I footnote in place of Ka) (Table I footnote, H2O, 25° C): completely dissociated in aqueous solution
pKa (H2 O) at 25° C (Table I, H2O, 25° C): 0

C=CCC(=O)O [vinylacetic]
pKa (H2 O) at 25° C (water): 4.34

CCC(Cl)C(=O)O (stereo not drawn) [α-chlorobutyric]
Ka (H2 O) at 25° C (Table I, H2O, 25° C): 1.39 × 10^-3
pKa (H2 O) at 25° C (Table I, H2O, 25° C): 2.86

CC(Cl)C(=O)O (stereo not drawn) [α-chloropropionic]
Ka (H2 O) at 25° C (Table I, H2O, 25° C): 1.47 × 10^-3
pKa (H2 O) at 25° C (Table I, H2O, 25° C): 2.83

CC(Cl)CC(=O)O (stereo not drawn) [β-chlorobutyric]
Ka (H2 O) at 25° C [1]: 8.9 × 10^-5
pKa (H2 O) at 25° C [1]: 4.05

O=C(O)CCCl [β-chloropropionic]
Ka (H2 O) at 25° C [1]: 1.04 × 10^-4
pKa (H2 O) at 25° C [1]: 3.98
